Laboratory results: patent publication US20220288052A1, “COMPOUND FOR COMBINATION TREATMENT” (priority 2019, published 2022)
Like-named read-outs stand apart in the source and are kept apart here.

Tests used:
[1] = Exposure and tissue distribution after 14 days repeat dosing, rat; assay type: in vivo; details: for concentration at 2 h / Kp at 2 h: rat, sc, 2 h post last dose
Procedure: Single time point data is available from two 14 days repeat dose studies in mice and rats dosed to both sexes. The three low doses were performed together as one study and the top dose was performed at another occasion as a satellite study.
Samples were taken 2 h post last dose.
Plasma, brain and liver were taken 2 h post last dose.

[2] = target: DA transporter (Homo sapiens, UniProt Q01959); experiment: ^3H-uptake human, DA transporter; assay type: biochemical
DA transporter, sequence (Q01959 whole entry): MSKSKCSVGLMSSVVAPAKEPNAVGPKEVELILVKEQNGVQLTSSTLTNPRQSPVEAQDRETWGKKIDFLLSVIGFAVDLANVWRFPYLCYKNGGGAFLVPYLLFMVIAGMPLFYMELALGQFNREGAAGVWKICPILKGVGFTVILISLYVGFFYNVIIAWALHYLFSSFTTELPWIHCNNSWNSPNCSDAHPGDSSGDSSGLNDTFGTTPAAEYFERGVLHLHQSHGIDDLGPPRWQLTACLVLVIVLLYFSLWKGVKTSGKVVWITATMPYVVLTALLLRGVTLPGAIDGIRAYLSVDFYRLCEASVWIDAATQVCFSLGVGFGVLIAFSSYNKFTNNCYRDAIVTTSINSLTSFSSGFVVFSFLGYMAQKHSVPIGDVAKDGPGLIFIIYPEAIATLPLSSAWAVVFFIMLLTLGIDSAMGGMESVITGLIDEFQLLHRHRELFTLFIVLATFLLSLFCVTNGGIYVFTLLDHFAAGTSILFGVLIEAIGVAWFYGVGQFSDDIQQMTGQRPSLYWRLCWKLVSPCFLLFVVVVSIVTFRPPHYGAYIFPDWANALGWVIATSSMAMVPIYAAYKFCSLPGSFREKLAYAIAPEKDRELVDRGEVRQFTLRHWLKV
Description: (§1) Compound (I) has been characterized as a monoamine reuptake inhibitor, based on the profile in a series of functional assays (Table 2).

[3] = test system: plasma protein; experiment: Plasma protein binding by equilibrium dialysis, rat; assay type: in vitro ADME
Procedure: The plasma protein binding was tested in rat, mouse, dog and human plasma by equilibrium dialysis. The plasma protein binding of this compound is remarkably low (Table 24).

[4] = test system: mice; experiment: Mouse zero maze (mZM); assay type: in vivo; details: mZero maze, p.o.
Procedure: Mice were treated (peroral administration) for 7 days with either, vehicle, duloxetine (10 mg/kg), and compound I (0.1 mg/kg, 1 mg/kg, and 3 mg/kg) (n=8 in each group).
Compound (I) was tested in three widely used behavioural screens for predicting anxiolytic effects in the clinic: the mouse marble burying test (mMB), mouse zero maze (mZM) and mouse stress-induced hyperthermia test (mSIH).

[5] = target: NA transporter (Rattus norvegicus, UniProt Q63380); experiment: ^3H-uptake rat, NA transporter; assay type: biochemical
NA transporter, sequence (Q63380 1-617): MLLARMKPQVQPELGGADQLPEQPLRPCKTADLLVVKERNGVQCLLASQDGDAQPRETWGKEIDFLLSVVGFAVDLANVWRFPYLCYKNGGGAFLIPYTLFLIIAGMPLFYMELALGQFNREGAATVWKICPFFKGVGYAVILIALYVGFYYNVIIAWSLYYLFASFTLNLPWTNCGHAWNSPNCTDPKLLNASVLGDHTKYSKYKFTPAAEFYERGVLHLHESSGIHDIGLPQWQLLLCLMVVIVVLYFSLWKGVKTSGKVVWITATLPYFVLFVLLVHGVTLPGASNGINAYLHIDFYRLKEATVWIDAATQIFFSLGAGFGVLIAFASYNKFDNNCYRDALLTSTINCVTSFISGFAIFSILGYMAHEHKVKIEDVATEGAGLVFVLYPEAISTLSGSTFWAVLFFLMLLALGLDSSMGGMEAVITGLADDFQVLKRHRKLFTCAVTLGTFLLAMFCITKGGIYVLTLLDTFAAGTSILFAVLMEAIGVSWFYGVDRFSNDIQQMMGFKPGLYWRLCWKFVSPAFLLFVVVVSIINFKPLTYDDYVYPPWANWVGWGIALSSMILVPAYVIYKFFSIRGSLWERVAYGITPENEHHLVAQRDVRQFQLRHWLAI
Description: as §1

[6] = target: Sigma σ1 (Homo sapiens, UniProt Q99720); experiment: MDS LeadProfilingScreen, Sigma σ1; assay type: binding
Sigma σ1, sequence (Q99720 whole entry): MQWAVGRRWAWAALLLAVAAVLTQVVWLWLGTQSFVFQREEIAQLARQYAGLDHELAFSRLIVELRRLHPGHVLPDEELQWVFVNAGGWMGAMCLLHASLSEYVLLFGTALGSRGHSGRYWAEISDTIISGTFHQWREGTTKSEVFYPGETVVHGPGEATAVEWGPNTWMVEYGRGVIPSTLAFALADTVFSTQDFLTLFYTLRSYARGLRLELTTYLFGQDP

[7] = target: hERG channels (Homo sapiens, UniProt Q12809); experiment: cell-based
hERG channels, sequence (Q12809 whole entry): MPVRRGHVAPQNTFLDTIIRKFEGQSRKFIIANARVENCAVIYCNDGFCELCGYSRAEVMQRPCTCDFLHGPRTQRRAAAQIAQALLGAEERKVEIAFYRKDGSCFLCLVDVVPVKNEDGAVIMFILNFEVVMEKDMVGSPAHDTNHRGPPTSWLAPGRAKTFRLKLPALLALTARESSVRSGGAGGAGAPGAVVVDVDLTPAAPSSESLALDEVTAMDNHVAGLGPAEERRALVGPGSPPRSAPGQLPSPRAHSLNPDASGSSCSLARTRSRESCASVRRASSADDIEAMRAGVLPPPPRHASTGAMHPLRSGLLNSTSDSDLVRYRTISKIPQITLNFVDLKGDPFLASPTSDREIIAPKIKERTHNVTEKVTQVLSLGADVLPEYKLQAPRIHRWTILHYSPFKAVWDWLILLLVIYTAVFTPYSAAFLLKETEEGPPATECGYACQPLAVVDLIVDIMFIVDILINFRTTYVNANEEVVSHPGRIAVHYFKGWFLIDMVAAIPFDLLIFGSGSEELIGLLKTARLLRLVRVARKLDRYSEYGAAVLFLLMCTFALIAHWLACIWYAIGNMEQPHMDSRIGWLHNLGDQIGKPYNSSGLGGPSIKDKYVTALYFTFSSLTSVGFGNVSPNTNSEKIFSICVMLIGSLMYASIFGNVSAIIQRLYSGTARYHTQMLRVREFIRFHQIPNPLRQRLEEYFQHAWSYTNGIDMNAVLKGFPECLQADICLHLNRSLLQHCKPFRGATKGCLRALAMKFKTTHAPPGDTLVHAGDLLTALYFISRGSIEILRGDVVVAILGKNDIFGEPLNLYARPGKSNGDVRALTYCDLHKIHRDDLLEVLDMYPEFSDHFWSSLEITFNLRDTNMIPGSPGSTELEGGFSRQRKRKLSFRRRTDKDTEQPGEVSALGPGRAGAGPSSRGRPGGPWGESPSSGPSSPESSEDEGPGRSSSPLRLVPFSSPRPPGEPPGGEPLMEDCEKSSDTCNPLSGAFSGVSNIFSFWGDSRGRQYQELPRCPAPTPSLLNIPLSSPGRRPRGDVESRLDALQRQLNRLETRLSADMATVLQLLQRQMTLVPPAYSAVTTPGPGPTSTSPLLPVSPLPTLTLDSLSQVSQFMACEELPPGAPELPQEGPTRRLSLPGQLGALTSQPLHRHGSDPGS
Procedure: A HEK293 cell line stably expressing Kv11.3 for hERG and KCNE1 (minK) was established. The effect of compound (I) on the amount of current carried by hERG channels was assessed in whole-cell patch clamp experiments. The channels were activated by a voltage protocol designed to simulate a human cardiac action potential.

## O=c1ccc2ccc(O[C@@H]3C[C@H]4CC[C@@H](C3)N4)cc2o1 [Compound (I), exo-7-(8-aza-bicyclo[3.2.1]oct-3-yloxy)-chromen-2-one]
[1]; Wistar, brain, Female rats, 5 mg/kg s.c. 14 days, read-out: Brain concentration
  concentration at 2 h: 468 ng/g
[1]; Wistar, brain, Female rats, 10 mg/kg s.c. 14 days, read-out: Brain concentration
  concentration at 2 h: 1020 ng/g
[1]; Wistar, brain, Female rats, 15 mg/kg s.c. 14 days, read-out: Brain concentration
  concentration at 2 h: 1580 ng/g
[1]; Wistar, brain, Female rats, 25 mg/kg s.c. 14 days, read-out: Brain concentration
  concentration at 2 h: 2080 ng/g
[1]; Wistar, brain, Male rats, 5 mg/kg s.c. 14 days, read-out: Brain concentration
  concentration at 2 h: 519 ng/g
[1]; Wistar, brain, Male rats, 10 mg/kg s.c. 14 days, read-out: Brain concentration
  concentration at 2 h: 1380 ng/g
[1]; Wistar, brain, Male rats, 15 mg/kg s.c. 14 days, read-out: Brain concentration
  concentration at 2 h: 1950 ng/g
[1]; Wistar, brain, Male rats, 25 mg/kg s.c. 14 days, read-out: Brain concentration
  concentration at 2 h: 2580 ng/g
[1]; Wistar, brain/plasma, Female rats, 5 mg/kg s.c. 14 days, read-out: Brain/plasma ratio
  Kp at 2 h: 7
[1]; Wistar, brain/plasma, Female rats, 10 mg/kg s.c. 14 days, read-out: Brain/plasma ratio
  Kp at 2 h: 7
[1]; Wistar, brain/plasma, Female rats, 15 mg/kg s.c. 14 days, read-out: Brain/plasma ratio
  Kp at 2 h: 6
[1]; Wistar, brain/plasma, Male rats, 5 mg/kg s.c. 14 days, read-out: Brain/plasma ratio
  Kp at 2 h: 7
[1]; Wistar, brain/plasma, Male rats, 10 mg/kg s.c. 14 days, read-out: Brain/plasma ratio
  Kp at 2 h: 6
[1]; Wistar, brain/plasma, Male rats, 15 mg/kg s.c. 14 days, read-out: Brain/plasma ratio
  Kp at 2 h: 5
[1]; Wistar, in vivo, Female rats, 5 mg/kg s.c. 14 days, read-out: Liver/plasma ratio
  Kp at 2 h: 5
[1]; Wistar, in vivo, Female rats, 10 mg/kg s.c. 14 days, read-out: Liver/plasma ratio
  Kp at 2 h: 5
[1]; Wistar, in vivo, Female rats, 15 mg/kg s.c. 14 days, read-out: Liver/plasma ratio
  Kp at 2 h: 5
[1]; Wistar, in vivo, Male rats, 5 mg/kg s.c. 14 days, read-out: Liver/plasma ratio
  Kp at 2 h: 3
[1]; Wistar, in vivo, Male rats, 10 mg/kg s.c. 14 days, read-out: Liver/plasma ratio
  Kp at 2 h: 3
[1]; Wistar, in vivo, Male rats, 15 mg/kg s.c. 14 days, read-out: Liver/plasma ratio
  Kp at 2 h: 2
[1]; Wistar, liver, Female rats, 5 mg/kg s.c. 14 days, read-out: Liver concentration
  concentration at 2 h: 319 ng/g
[1]; Wistar, liver, Female rats, 10 mg/kg s.c. 14 days, read-out: Liver concentration
  concentration at 2 h: 738 ng/g
[1]; Wistar, liver, Female rats, 15 mg/kg s.c. 14 days, read-out: Liver concentration
  concentration at 2 h: 1520 ng/g
[1]; Wistar, liver, Male rats, 5 mg/kg s.c. 14 days, read-out: Liver concentration
  concentration at 2 h: 259 ng/g
[1]; Wistar, liver, Male rats, 10 mg/kg s.c. 14 days, read-out: Liver concentration
  concentration at 2 h: 737 ng/g
[1]; Wistar, liver, Male rats, 15 mg/kg s.c. 14 days, read-out: Liver concentration
  concentration at 2 h: 921 ng/g
[1]; Wistar, plasma, Female rats, 5 mg/kg s.c. 14 days, read-out: Plasma concentration
  concentration at 2 h: 67 ng/mL
[1]; Wistar, plasma, Female rats, 10 mg/kg s.c. 14 days, read-out: Plasma concentration
  concentration at 2 h: 149 ng/mL
[1]; Wistar, plasma, Female rats, 15 mg/kg s.c. 14 days, read-out: Plasma concentration
  concentration at 2 h: 281 ng/mL
[1]; Wistar, plasma, Male rats, 5 mg/kg s.c. 14 days, read-out: Plasma concentration
  concentration at 2 h: 77 ng/mL
[1]; Wistar, plasma, Male rats, 10 mg/kg s.c. 14 days, read-out: Plasma concentration
  concentration at 2 h: 242 ng/mL
[1]; Wistar, plasma, Male rats, 15 mg/kg s.c. 14 days, read-out: Plasma concentration
  concentration at 2 h: 398 ng/mL
[1]; brain/plasma, Female rats, 25 mg/kg s.c. 14 days, read-out: Brain/plasma ratio
  Kp at 2 h: 5
[1]; brain/plasma, Male rats, 25 mg/kg s.c. 14 days, read-out: Brain/plasma ratio
  Kp at 2 h: 5
[1]; in vivo, Female rats, 25 mg/kg s.c. 14 days, read-out: Liver/plasma ratio
  Kp at 2 h: 6
[1]; in vivo, Male rats, 25 mg/kg s.c. 14 days, read-out: Liver/plasma ratio
  Kp at 2 h: 3
[1]; liver, Female rats, 25 mg/kg s.c. 14 days, read-out: Liver concentration
  concentration at 2 h: 2310 ng/g
[1]; liver, Male rats, 25 mg/kg s.c. 14 days, read-out: Liver concentration
  concentration at 2 h: 1560 ng/g
[1]; plasma, Female rats, 25 mg/kg s.c. 14 days, read-out: Plasma concentration
  concentration at 2 h: 412 ng/mL
[1]; plasma, Male rats, 25 mg/kg s.c. 14 days, read-out: Plasma concentration
  concentration at 2 h: 512 ng/mL
[1]; rats, 5-25 mg/kg s.c. 14 days, 5% glucose
  Linearity of kinetics after repeat dosing: slight tendency to supra-linear kinetics
[2]
  IC50: 100 nM
  Ki: 100 nM
[2]; DA versus 5-HT
  Human transporter ratio: 56
[3]; 81 ng/ml
  fraction unbound at 81 ng/ml: 0.566
[3]; 271 ng/ml
  fraction unbound at 271 ng/ml: 0.65
[3]; 813 ng/ml
  fraction unbound at 813 ng/ml: 0.582
[3]; 2710 ng/ml
  fraction unbound at 2710 ng/ml: 0.635
[4]; acute, −60 min
  MED: >10 mg/kg
[4]; 7 days OD
  MED: <0.3 mg/kg
[5]
  IC50: 85 nM
[6]
  inhibition at 10 µM: 59%
[7]
  Ki: > 10000 nM
